Experimental data reported in patent US11160798B2, “Neuroprotective CB2 receptor agonists” (THE CLEVELAND CLINIC FOUNDATION, priority 2012, dated 2021).

Tests used:
[1] = tested on: Aβ1-40; assay: Clearance of Aβ1-40 injected in the hippocampal CA1 area (immunofluorescence); assay type: in vivo, rat; settings: Aβ1-40-injected rats, 15 mg/kg per day for 14 days; hippocampal CA1
Protocol: (§1) Animals were divided into several groups ([…]). The Aβ1-40 group received bilateral intracerebral microinjection of Aβ1-40 fibrils once and saline intraperitoneally (i.p.) daily for 14 days. The Aβ1-40+MDA7 group received bilateral intracerebral microinjection of Aβ1-40 fibrils once and 15 mg/kg MDA7 i.p. daily for 14 days. Other cohorts received smaller doses of MDA7 (5 mg/kg or 1.5 mg/kg) i.p. daily for 14 days to determine the dose-response characteristics for MDA7. In other groups, AM630 (a CB2 antagonist) 5 mg/kg i.p. was administered daily for 14 days either alone (Aβ1-40+AM630 group) or 15 min prior to MDA7 (15 mg/kg i.p.) administration (Aβ1-40+MDA7+AM630 group) to rats injected with β1-40 fibrils. MDA7 group and control group received bilateral intracerebral microinjection of artificial cerebrospinal fluid (130 mM NaCl, 2.6 mM KCl. 4.3 mM MgCl2 and 1.8 mM CaCl2) once and 15 mg/kg MDA7 or saline i.p. daily for 14 days, respectively. Intraperitoneal administration of AM630, MDA7 or saline started on the same day after intracerebral microinjection of Aβ1-40. All drugs were prepared coded. Decoding was performed at the end of all experiments.
Microinjection of amyloid fibrils into the hippocampal CA1 area. Rats were anesthetized with sodium pentobarbital (45 mg/kg i.p.) and restrained in a stereotaxic apparatus. Aβ1-40 fibrils were formed as described previously. […]
(§2) Immunostaining. […] Three to six sections from each rat were randomly selected and were analyzed using Leica DMLB fluorescence microscope (Leica Microsystems Wetzlar GmbH, Germany) by one investigator, who was blinded to the origin of tissue being examined. Images were quantified using MCID Core software version 7.0 (InterFocus Imaging Ltd, Cambridge, England).

[2] = tested on: CB2 receptor; assay: CB2 receptor expression in hippocampal CA1 area (immunostaining, immunoblotting); assay type: in vivo, rat; settings: Aβ1-40-injected rats
Protocol: as §1, with “Intraperitoneal administration of AM630, MDA7 or saline started on the same day after intracerebral microinjection of Aβ1-40. All drugs were prepared coded. Decoding was performed at the end of all experiments.” left out
as §2, with “England). […]” for “England).”

[3] = tested on: CA1 neurons; assay: Evoked EPSCs (basal glutamatergic strength) in hippocampal CA1 slices, whole-cell patch clamp; assay type: in vivo, rat
Protocol: Animals were divided into several groups (40-50 rats per group). The Aβ1-40 group received bilateral intracerebral microinjection of Aβ1-40 fibrils once and saline intraperitoneally (i.p.) daily for 14 days. The Aβ1-40+MDA7 group received bilateral intracerebral microinjection of Aβ1-40 fibrils once and 15 mg/kg MDA7 i.p. daily for 14 days. Other cohorts received smaller doses of MDA7 (5 mg/kg or 1.5 mg/kg) i.p. daily for 14 days to determine the dose-response characteristics for MDA7. In other groups, AM630 (a CB2 antagonist) 5 mg/kg i.p. was administered daily for 14 days either alone (Aβ1-40+AM630 group) or 15 min prior to MDA7 (15 mg/kg i.p.) administration (Aβ1-40+MDA7+AM630 group) to rats injected with β1-40 fibrils. […]
Whole-cell patch clamp recordings in hippocampal slices. […] The series resistance was optimally compensated by ≥70% and constantly monitored throughout the experiments. […] Excitatory postsynaptic currents (EPSCs) were recorded in the CA1 area in the presence of GABAA antagonist bicuculline (30 μM). The evoked EPSCs were filtered at 2 kHz, digitized at 10 kHz, and acquired and analyzed using Axograph X software. The amplitude of EPSCs was monitored for a baseline period of at least 15 min. […]

[4] = target: rCB1 (Rattus norvegicus, UniProt P20272); settings: cited from earlier work
rCB1, sequence (P20272 whole entry): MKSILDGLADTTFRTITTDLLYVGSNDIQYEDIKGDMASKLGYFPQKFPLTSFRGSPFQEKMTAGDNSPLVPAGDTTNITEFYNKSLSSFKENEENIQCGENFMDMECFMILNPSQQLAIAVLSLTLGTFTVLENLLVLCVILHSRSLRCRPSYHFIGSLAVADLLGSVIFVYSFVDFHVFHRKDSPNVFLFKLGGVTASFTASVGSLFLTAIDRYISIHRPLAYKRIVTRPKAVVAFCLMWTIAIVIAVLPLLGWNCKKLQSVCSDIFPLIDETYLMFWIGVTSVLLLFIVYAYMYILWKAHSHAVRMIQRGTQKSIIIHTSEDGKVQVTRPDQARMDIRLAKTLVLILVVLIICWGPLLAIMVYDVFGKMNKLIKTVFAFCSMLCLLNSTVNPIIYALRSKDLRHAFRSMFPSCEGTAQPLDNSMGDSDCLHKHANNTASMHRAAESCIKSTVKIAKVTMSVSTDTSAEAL

## CC1(Cc2ccccc2)COc2cc(C(=O)N3CCCCC3)ccc21 (stereo not drawn) [MDA7, 3-benzyl-3-methyl-2,3-dihydrobenzofuran-6-carboxylic acid-piperidine amide]
[1]
  clearance of injected Aβ1-40: induced removal of Aβ1-40
[2]; 15 mg/kg i.p. daily for 14 days
  CB2 receptor expression (immunoblotting): significantly reversed
[2]; 15 mg/kg i.p. for 14 days, vs saline
  CB2 expression (immunofluorescence): reduced CB2 expression
[3]; Aβ1-40-injected rats, 15 mg/kg i.p. for 14 days, all three stimulus intensities
  amplitude of evoked EPSCs in CA1 neurons: restored
[3]; MDA7 group (no Aβ1-40) vs control group
  basal glutamatergic strength, treatment alone: not different
[4]
  EC50 at rCB1: not active
